Source: BigSolDB 2.1

O=C(N[C@@H](Cc1ccc(O)cc1)C(=O)O)OCC1c2ccccc2-c2ccccc21
solubility (mole fraction)
Conditions	293.15 K	298.15 K	303.15 K	308.15 K	313.15 K	318.15 K	323.15 K	328.15 K	333.15 K
in acetone	0.0683	0.0723	0.077	0.078	0.0824	0.0901	0.0959	–	–
in acetonitrile	0.00233	0.00272	0.00326	0.00382	0.00432	0.00504	0.00637	0.00781	0.00884
in dimethyl carbonate	0.00346	0.00367	0.0044	0.00477	0.00583	0.00638	0.00747	0.00918	0.0109
in ethyl acetate	0.0129	0.0135	0.014	0.0152	0.0164	0.019	0.0203	0.0222	0.0254
in isobutanol	0.00543	0.00685	0.00823	0.00992	0.0123	0.0146	0.0175	0.0219	0.0279
in isopropanol	0.0147	0.0179	0.0213	0.027	0.0307	0.0385	0.043	0.0546	0.0691
in methyl acetate	0.0155	0.0163	0.0173	0.0177	0.0209	0.0219	0.0249	–	–
in n-butanol	0.0129	0.0151	0.0178	0.0198	0.0231	0.0281	0.0319	0.0385	0.0463
in n-butyl acetate	0.00611	0.00636	0.00688	0.00765	0.00862	0.00933	0.00976	0.0118	0.0124
in n-pentanol	0.0111	0.0121	0.0144	0.0168	0.02	0.0231	0.0244	0.0324	0.0388
in n-propyl acetate	0.00762	0.00799	0.00861	0.00951	0.0104	0.0108	0.0126	0.0138	0.015
in sec-butanol	0.0146	0.018	0.0215	0.0263	0.0323	0.0388	0.0454	0.0538	0.0639
